Laboratory results from the NIST ThermoML archive (doi:10.1021/je700260f).

Conditions: 313.15 K, Liquid, Vibrating tube method

FC(C(F)(F)F)C(F)(F)F [1,1,1,2,3,3,3-heptafluoropropane]
Conditions	mass density [kg/m3]
13017 kPa	1415.6
13123 kPa	1416.2
13155 kPa	1416.3
13192 kPa	1416.5
13220 kPa	1416.6
13252 kPa	1417
13275 kPa	1417.1
13311 kPa	1417.3
13338 kPa	1417.4
13374 kPa	1417.6
13406 kPa	1417.6
13443 kPa	1418
13476 kPa	1418.1
13514 kPa	1418.3
13538 kPa	1418.3
13572 kPa	1418.6
13615 kPa	1418.9
13653 kPa	1419.1
13686 kPa	1419.4
13729 kPa	1419.6
13757 kPa	1419.6
13800 kPa	1419.9
13833 kPa	1420.1
13862 kPa	1420.3
13891 kPa	1420.4
13925 kPa	1420.6
13959 kPa	1420.6
13998 kPa	1420.9
14038 kPa	1421.2
14071 kPa	1421.4
14109 kPa	1421.6
14152 kPa	1421.9
14190 kPa	1422
14230 kPa	1422.4
14386 kPa	1422.9
14416 kPa	1423.1
14459 kPa	1423.5
14490 kPa	1423.7
14534 kPa	1423.8
14559 kPa	1423.9
14599 kPa	1424.1
14628 kPa	1424.3
14673 kPa	1424.6
14708 kPa	1424.9
14737 kPa	1424.9
14767 kPa	1425
14796 kPa	1425.3
14836 kPa	1425.4
14865 kPa	1425.6
14904 kPa	1425.8
14933 kPa	1425.9
14966 kPa	1426.1
14996 kPa	1426.1
15036 kPa	1426.5
15063 kPa	1426.5
15093 kPa	1426.7
15124 kPa	1426.9
15155 kPa	1427
15184 kPa	1427.2
15210 kPa	1427.4
15246 kPa	1427.5
15282 kPa	1427.7
15313 kPa	1428.1
15346 kPa	1427.9
15372 kPa	1428.3
15412 kPa	1428.5
15443 kPa	1428.6
15484 kPa	1428.7
15512 kPa	1429
15540 kPa	1429
15570 kPa	1429.3
15597 kPa	1429.5
15629 kPa	1429.6
15661 kPa	1429.7
15703 kPa	1429.9
15744 kPa	1430
15771 kPa	1430.2
15813 kPa	1430.6
15845 kPa	1430.6
15887 kPa	1430.9
15924 kPa	1431.2
15947 kPa	1431.2
15988 kPa	1431.4
16024 kPa	1431.6
16051 kPa	1431.6
16091 kPa	1431.9
16136 kPa	1432.1
16169 kPa	1432.2
16230 kPa	1432.6
16290 kPa	1432.9
16326 kPa	1433
16358 kPa	1433.3
16395 kPa	1433.5
16436 kPa	1433.6
16468 kPa	1433.7
16504 kPa	1434
16582 kPa	1434.4
16615 kPa	1434.6
16652 kPa	1434.6
16709 kPa	1435
16737 kPa	1434.9
16807 kPa	1435.4
16839 kPa	1435.5
16867 kPa	1435.7
16905 kPa	1436.1
16942 kPa	1436.1
16974 kPa	1436.3
17006 kPa	1436.5
17039 kPa	1436.6
17075 kPa	1436.8
17104 kPa	1436.8
17132 kPa	1437.2
17165 kPa	1437.3
17197 kPa	1437.3
17235 kPa	1437.5
17267 kPa	1437.6
17294 kPa	1437.8
17334 kPa	1438
17360 kPa	1438.1
17392 kPa	1438.3
17427 kPa	1438.5
17459 kPa	1438.7
17496 kPa	1438.9
17519 kPa	1439
17551 kPa	1439.2
17575 kPa	1439.3
17616 kPa	1439.4
17652 kPa	1439.6
17684 kPa	1439.7
17711 kPa	1440
17743 kPa	1440
17775 kPa	1440.1
17811 kPa	1440.3
17839 kPa	1440.4
17877 kPa	1440.6
17906 kPa	1440.8
17943 kPa	1440.9
17971 kPa	1441.1
18008 kPa	1441.2
18041 kPa	1441.4
18077 kPa	1441.6
18110 kPa	1441.7
18143 kPa	1442
18176 kPa	1442.1
18204 kPa	1442.2
18242 kPa	1442.3
18277 kPa	1442.6
18309 kPa	1442.7
18337 kPa	1442.8
18375 kPa	1443
18403 kPa	1443.1
18441 kPa	1443.2
18469 kPa	1443.5
18507 kPa	1443.6
18691 kPa	1444.6
18725 kPa	1444.7
18755 kPa	1444.7
18796 kPa	1444.9
18830 kPa	1445
18875 kPa	1445.3
18905 kPa	1445.6
18955 kPa	1445.7
18985 kPa	1445.8
19031 kPa	1445.9
19066 kPa	1446.1
19107 kPa	1446.4
19137 kPa	1446.6
19178 kPa	1446.8
19218 kPa	1446.9
19263 kPa	1447.2
19293 kPa	1447.3
19333 kPa	1447.5
19378 kPa	1447.6
19412 kPa	1447.8
19441 kPa	1448
19476 kPa	1448.1
19522 kPa	1448.4
19553 kPa	1448.5
19589 kPa	1448.7
19625 kPa	1448.9
19669 kPa	1448.9
19710 kPa	1449.1
19750 kPa	1449.4
19781 kPa	1449.5
19822 kPa	1449.6
19858 kPa	1449.8
19893 kPa	1450
19930 kPa	1450.1
19961 kPa	1450.3
19996 kPa	1450.4
20037 kPa	1450.7
20072 kPa	1450.8
20108 kPa	1450.8
20144 kPa	1451.1
20180 kPa	1451.2
20221 kPa	1451.4
20257 kPa	1451.5
20293 kPa	1451.8
20324 kPa	1451.8
20366 kPa	1452
20397 kPa	1452.3
20433 kPa	1452.4
20464 kPa	1452.6
20500 kPa	1452.8
20530 kPa	1452.8
